Assays:
Format in all cases: cell-based, human
[1] = system: autologous T cells of healthy donors; design: key: +: positive response
[2] = system: autologous T cells of healthy donors; design: key: +: positive response; remark: listed apart in the source
[3] = system: autologous T cells of healthy donors; design: key: +: positive response; remark: listed apart in the source
[4] = system: autologous T cells of healthy donors; design: key: +: positive response; remark: listed apart in the source
[5] = system: PBMC from SARS-CoV-2 convalescent donors

Row | Sequence | ELISA [1] | ELISpot [2] | Proliferation [3] | positive response detected on one time point with two different assays [4] | positive response detected on two time points with the same assay [4] | IFNγ ELISpot response [5] | immunogenicity compared to the other SLPs [5]
1 | ALNTLVKQLSSNFGAISSVLNDILSRLDKV [SLP 9] | + | + | + | + |  |  | 
2 | GNGGDAALALLLLDRLNQLESKMSGKGQ [SLP 39] | + | + | + | + | + |  | 
3 | IRQGTDYKHWPQIAQFAPSASAFFG [SLP 46] |  |  |  |  |  | high responses | remarkably immunogenic
4 | LFARTRSMWSFNPETNILLNV [SLP 19] | + |  | + | + | + | high responses | 
5 | PLVDLPIGINITRFQTLLALHRSYLTPGDSSSG [SLP 32] | + |  | + |  | + |  | 
